The assay concerns the target ENPP-1 (Ectonucleotide Pyrophosphatase/Phosphodiesterase 1) (Homo sapiens (Human), UniProt P22413). The assay is described as follows: ENPP1 inhibition assay (AMP Glo, cGAMP substrate). Type of assay: biochemical. The following applies: cGAMP 20 μM substrate, ENPP1 1 nM. The protocol: IC50 values of compounds against ENPP-1 (Ectonucleotide Pyrophosphatase/Phosphodiesterase 1) were determined at Integral BioSciences (India) using AMP Glo (Promega, Cat #V5011). Assay was performed in a 30 μL final volume in a white 96-well Half Area plate (Costar,Cat #3693). Dose response curve for the compounds were prepared in duplicates with starting conc. at 5 μM and a three-fold titration was performed. The reaction buffer consisted of 50 mM Tris (pH 8.0), 0.5 mM CaCl2), 1 μM ZnCl2, 250 mM NaCl and 0.1 mg/ml BSA. To the compound dilution, 15 μL of ENPP1 enzyme (R&D Systems; Cat #6136-EN-010) was added to each well (final conc. 1 nM) and the mix was pre-incubated for 15 min at RT. An equal volume (15 μL) containing cGAMP (Sigma, Cat #SML-1229) (final conc. 20 μM) was added to initiate the enzyme reaction and the reaction was incubated for 30 min at RT. The reaction was then stopped by heating at 90° C. for 3 minutes. 10 μl of reaction was then transferred to 384 well white, medium binding plates (Grenier, Cat #781075) to which 10 μl of AMP-Glo Reagent 1 was added and mixed well and incubated for 1 hour at 25° C. Following 60 min incubation, 20 μL of detection mixture was added to the enzyme reaction bringing the final volume to 40 μL. The reaction was further incubated for 60 min at RT after which the plates were read using BioTek Plate reader.
Analysis was done using the standard curve by non-linear regression, variable slope inhibitor curve fits (Graph-Pad Prism) and IC50's of compounds were determined wherever possible.
ENPP-1 (Ectonucleotide Pyrophosphatase/Phosphodiesterase 1), sequence (P22413 whole entry): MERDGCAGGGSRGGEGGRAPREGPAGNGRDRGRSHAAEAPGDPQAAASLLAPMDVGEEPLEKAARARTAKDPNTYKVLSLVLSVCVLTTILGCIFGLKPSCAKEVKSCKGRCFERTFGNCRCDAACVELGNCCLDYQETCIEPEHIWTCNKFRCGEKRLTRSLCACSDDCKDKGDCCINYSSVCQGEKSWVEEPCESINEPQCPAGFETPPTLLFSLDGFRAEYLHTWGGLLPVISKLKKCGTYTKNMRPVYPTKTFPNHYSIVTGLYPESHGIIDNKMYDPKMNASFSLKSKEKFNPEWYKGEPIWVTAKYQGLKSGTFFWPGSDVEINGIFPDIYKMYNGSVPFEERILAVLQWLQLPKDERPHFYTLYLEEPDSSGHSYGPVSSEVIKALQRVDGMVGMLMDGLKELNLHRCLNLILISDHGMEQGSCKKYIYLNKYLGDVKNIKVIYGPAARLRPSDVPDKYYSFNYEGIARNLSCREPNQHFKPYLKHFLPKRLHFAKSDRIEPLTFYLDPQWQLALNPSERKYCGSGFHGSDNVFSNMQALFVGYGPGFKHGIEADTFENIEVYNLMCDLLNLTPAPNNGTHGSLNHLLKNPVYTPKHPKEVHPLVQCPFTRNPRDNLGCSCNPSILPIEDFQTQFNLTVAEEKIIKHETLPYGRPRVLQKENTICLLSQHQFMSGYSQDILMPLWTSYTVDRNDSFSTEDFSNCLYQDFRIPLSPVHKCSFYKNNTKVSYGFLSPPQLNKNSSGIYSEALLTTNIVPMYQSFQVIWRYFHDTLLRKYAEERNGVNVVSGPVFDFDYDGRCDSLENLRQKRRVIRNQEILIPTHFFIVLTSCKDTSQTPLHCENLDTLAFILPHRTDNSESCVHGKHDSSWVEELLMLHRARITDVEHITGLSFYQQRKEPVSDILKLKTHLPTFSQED
One may read the IC50 as the concentration needed to halve the response being measured. In the case of `COc1cc2ncnc(N3CC4(CC(CB(O)O)C4)C3)c2cc1OC` [Compound 1.53, (2-(6,7-dimethoxyquinazolin-4-yl)-2-azaspiro[3.3]heptan-6-yl)methylboronic acid], the IC50 came out at 0.122 µM. In other words, the sub-micromolar range.

Consider `COc1cc2ncnc(N3CC(CCNS(N)(=O)=O)C3)c2cc1C` [Compound 1.54, N-(2-[1-(7-methoxy-6-methylquinazolin-4-yl)azetidin-3-yl]ethyl)sulfuric diamide], for which the IC50 came out at 1.68 µM.

On to `COc1cc2ncnc(N3CC(/C=C/S(N)(=O)=O)C3)c2cc1OC` [Compound 1.55, (E)-2-(1-(6,7-dimethoxyquinazolin-4-yl)azetidin-3-yl)ethenesulfonamide], for which the IC50 turned out to be 0.036 µM.

As for `COc1ccc2c(N3CC(CCCS(N)(=O)=O)C3)ncnc2c1` [Compound 1.56, 3-(1-(7-methoxyquinazolin-4-yl)azetidin-3-yl)propane-1-sulfonamide], half-maximal inhibition (IC50) was put at 0.085 µM. Against the preceding compound, the IC50 is about 2.4-fold higher.

In turn, `COc1cc2ncnc(N3CC(CCNS(N)(=O)=O)(c4ccccc4)C3)c2cc1OC` [Compound 1.58, 4-3-(2-(sulfamoylamino)ethyl)-3-phenylazetidin-1-yl-6,7-dimethoxyquinazoline] came in with an IC50 of 0.66 µM.

Consider `Cc1ccn2ncnc(N3CC(CCB(O)O)C3)c12` [Compound 1.59, 2-(1-(5-methylpyrrolo[1,2-f][1,2,4]triazin-4-yl)azetidin-3-yl)ethylboronic acid], for which the IC50 is greater than 3 µM.

For `CCc1nc(N2CC(CCNS(N)(=O)=O)C2)c2cc(OC)c(OC)cc2n1` [Compound 1.61, 2-ethyl-6,7-dimethoxy-4-[3-[2-(sulfamoylamino)ethyl]azetidin-1-yl]quinazoline], inhibition was half-maximal at 0.097 µM (IC50).

Take `Cc1ccn2ncnc(N3CC4(CC(NS(N)(=O)=O)C4)C3)c12` [Compound 1.62]: the IC50 worked out at 0.067 µM. This IC50 and that of the compound before are within 1.5-fold of each other.

`COc1cc2ncnc(N3CC(CCCS(=O)(=O)O)C3)c2cc1OC` [Compound 1.65, 3-(1-(6,7-dimethoxyquinazolin-4-yl)azetidin-3-yl)propane-1-sulfonic acid] showed an IC50 of 0.078 µM.

For the compound `COc1cc2nncc(N3CC4(CC(N(C)S(N)(=O)=O)C4)C3)c2cc1OC` [Compound 1.68, 4(6-N-methylsulfamoylamino)-2-azaspiro[3.3]heptan-2-yl-6,7-dimethoxycinnoline], the IC50 was determined as 0.003 µM. This IC50 is about 26-fold lower than that of the compound before.

As to `Cc1c(Br)cn2ncnc(N3CC(CCNS(N)(=O)=O)C3)c12` [Compound 1.72, 4-(3-(2-sulfamoylaminoethyl)azetidine-1-yl)-6-bromo-5-methylpyrrolo[1,2-f][1,2,4]triazine], the IC50 was greater than 3 µM.

The compound `Cc1ccn2ncnc(N3CC4(CC(N(C)S(N)(=O)=O)C4)C3)c12` [Compound 1.73] returned a concentration for half-maximal inhibition (IC50) of 0.247 µM.

In turn, `Cc1c(Cl)cn2ncnc(N3CC4(CC(N(C)S(N)(=O)=O)C4)C3)c12` [Compound 1.75, N-[2-(6-chloro-5-methylpyrrolo[2,1-f][1,2,4]triazin-4-yl)-2-azaspiro[3.3]hept-6-yl]-N-methylsulfuric diamide] displayed a half-maximal inhibitory concentration (IC50) of 0.391 µM.

In turn, `Cc1cc(C)n2ncnc(N3CC4(CC(N(C)S(N)(=O)=O)C4)C3)c12` [Compound 1.77, N-(2-(5,7-dimethylpyrrolo[1,2-f][1,2,4]triazin-4-yl)-2-azaspiro[3.3]heptan-6-yl)-N-methylsulfamide] yielded a half-inhibitory concentration (IC50) of 0.295 µM.

In turn, `Cc1c(C#N)cn2ncnc(N3CC4(CC(N(C)S(N)(=O)=O)C4)C3)c12` [Compound 1.78, N-(2-(6-cyano-5-methylpyrrolo[1,2-f][1,2,4]triazin-4-yl)-2-azaspiro[3.3]heptan-6-yl)-N-methylsulfamamide] came in with an IC50 of 0.964 µM.

As for `Cc1cc(Br)n2ncnc(N3CC4(CC(N(C)S(N)(=O)=O)C4)C3)c12` [Compound 1.79, N-(2-(7-bromo-5-methylpyrrolo[1,2-f][1,2,4]triazin-4-yl)-2-azaspiro[3.3]heptan-6-yl)-N-methylsulfamamide], the half-maximal inhibitory concentration (IC50) was 0.053 µM. Compared with the last compound, the IC50 is about 18-fold lower.

With `Cc1cc(F)n2ncnc(N3CC4(CC(N(C)S(N)(=O)=O)C4)C3)c12` [Compound 1.80, N-(2-(7-fluoro-5-methylpyrrolo[1,2-f][1,2,4]triazin-4-yl)-2-azaspiro[3.3]heptan-6-yl)-N-methylsulfamamide], the IC50 amounted to 0.616 µM.

`Cc1cc(Cl)n2ncnc(N3CC4(CC(N(C5CC5)S(N)(=O)=O)C4)C3)c12` [Compound 1.81, N-(2-(7-chloro-5-methylpyrrolo[2,1-f][1,2,4]triazin-4-yl)-2-azaspiro[3.3]heptan-6-yl)-N-cyclopropylsulfamamide] had an IC50 of 0.245 µM. Against the preceding compound, the IC50 is about 2.5-fold lower.

In the case of `Cc1cc(Cl)n2ncnc(N3CC4(CC(N(C(C)C)S(N)(=O)=O)C4)C3)c12` [Compound 1.82, N-(2-(7-chloro-5-methylpyrrolo[2,1-f][1,2,4]triazin-4-yl)-2-azaspiro[3.3]heptan-6-yl)-N-isopropylsulfamamide], the midpoint of inhibition, the IC50, lay at 1.89 µM.

As for `Cc1cc(Cl)n2ncnc(N3CC(CCN(C(C)C)S(N)(=O)=O)C3)c12` [Compound 1.83, N-(2-(1-(7-chloro-5-methylpyrrolo[2,1-f][1,2,4]triazin-4-yl)azetidin-3-yl)ethyl)-N-isopropylsulfamamide], the IC50 is greater than 3 µM.

The compound `Cc1cc(Cl)n2ncnc(N3CC(CCN(C)S(N)(=O)=O)C3)c12` [Compound 1.84, N-(2-(1-(7-chloro-5-methylpyrrolo[1,2-f][1,2,4]triazin-4-yl)azetidin-3-yl)ethyl)-N-methylsulfamide] came in with a 50% inhibitory concentration (IC50) greater than 2.25 µM.

`Cc1cc(Cl)n2nc(C3CC3)nc(N3CC4(CC(N(C)S(N)(=O)=O)C4)C3)c12` [Compound 1.85] returned an IC50 greater than 2.39 µM.

Compound `Cc1cc(Cl)n2ncnc(N3CC(CN(C)S(N)(=O)=O)C3)c12` [Compound 1.86] gave a concentration for half-maximal inhibition (IC50) of 0.106 µM. That is a sub-micromolar value.

The compound `COc1ccc2c(N3CC4(CC(N(C)S(N)(=O)=O)C4)C3)cnnc2c1` [Compound 1.87, N-(2-(7-methoxycinnolin-4-yl)-2-azaspiro[3.3]heptan-6-yl)-N-methylsulfamide] showed a concentration for half-maximal inhibition (IC50) of 0.024 µM. This IC50 lies about 4.4-fold lower than the previous one.

Compound `Cc1cc(Cl)n2nc(C(F)F)nc(N3CC4(CC(N(C)S(N)(=O)=O)C4)C3)c12` [Compound 1.90] returned an IC50 greater than 3 µM.

Compound `Cc1cc(C#N)n2ncnc(N3CC4(CC(N(C)S(N)(=O)=O)C4)C3)c12` [Compound 1.91, N-(2-(6-cyano-5-methylpyrrolo[1,2-f][1,2,4]triazin-4-yl)-2-azaspiro[3.3]heptan-6-yl)-N-methylsulfamamide] displayed an IC50 greater than 3 µM.

`Cc1cc(Cl)n2ncnc(N3CC(CCN(C4CC4)S(N)(=O)=O)C3)c12` [Compound 1.92, N-(2-(1-(7-chloro-5-methylpyrrolo[2,1-f][1,2,4]triazin-4-yl)azetidin-3-yl)ethyl)-N-cyclopropylsulfamamide] gave an IC50 of 1.51 µM.

For the compound `Cc1cc(Cl)n2ncnc(N3CC4(CC(N(CCC(F)(F)F)S(N)(=O)=O)C4)C3)c12` [Compound 1.93, N-(2-(7-chloro-5-methylpyrrolo[2,1-f][1,2,4]triazin-4-yl)-2-azaspiro[3.3]heptan-6-yl)-N-(3,3,3-trifluoropropyl)sulfamamide], the 50% inhibitory concentration (IC50) is 0.019 µM. This IC50 lies about 79-fold lower than the previous one.

Compound `Cc1cc(Cl)n2ncnc(N3CC(CCN(C4CCC4)S(N)(=O)=O)C3)c12` [Compound 1.94, N-(2-(1-(7-chloro-5-methylpyrrolo[2,1-f][1,2,4]triazin-4-yl)azetidin-3-yl)ethyl)-N-cyclobutylsulfamamide] came in with a concentration for half-maximal inhibition (IC50) greater than 3 µM.

For the origin of these results see patent US20240352046A1, “ECTONUCLEOTIDE PYROPHOSPHATASE-PHOSPHODIESTERASE-1 (ENPP1) INHIBITORS AND USES THEREOF” (1cBio, Inc., priority 2020, published 2024).
